Assay results taken from patent US5986131A, “RXR selective ligands” (Hoffmann-La Roche Inc., priority 1997, dated 1999).
pIC50: −log10 of the molar value. Entries after “also recorded” stand apart in the source; their conditions may differ.

Legend:
[1] = target: T1, RARα (Homo sapiens, UniProt P10276); assay: RARα binding; settings: Table 2; read-out: RARα binding IC50
T1 sequence (P10276 1-462): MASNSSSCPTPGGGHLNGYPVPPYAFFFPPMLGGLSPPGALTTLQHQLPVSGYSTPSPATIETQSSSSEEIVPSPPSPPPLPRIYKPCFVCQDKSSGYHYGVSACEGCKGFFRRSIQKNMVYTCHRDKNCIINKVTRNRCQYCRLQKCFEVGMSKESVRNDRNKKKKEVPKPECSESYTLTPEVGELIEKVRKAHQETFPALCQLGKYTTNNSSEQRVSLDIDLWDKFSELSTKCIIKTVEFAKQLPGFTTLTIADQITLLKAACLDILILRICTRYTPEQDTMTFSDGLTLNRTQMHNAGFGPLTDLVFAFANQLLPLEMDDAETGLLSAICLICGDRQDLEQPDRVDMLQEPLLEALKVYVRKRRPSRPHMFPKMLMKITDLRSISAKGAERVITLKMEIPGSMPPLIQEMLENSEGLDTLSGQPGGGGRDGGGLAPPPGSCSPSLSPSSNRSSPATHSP
Source text: Methods essentially as described in those publications were used to determine the binding and transactivation properties of retinoids reported in the Examples herein.

[2] = tested on: mouse B cell; assay: Inhibition of LPS-induced mouse B cell proliferation (3H-thymidine incorporation); format: cell-based
Description: Single cell suspensions of mouse spleen were set up in culture in flatbottomed 96 well Microtiter trays, 0.2 ml/well of a 2×10^5 /ml cell suspension in IMDM supplemented with 10% foetal calf serum, HEPES, antibiotics and 50 μM 2-mercaptoethanol. The specific B cell mitogen E. coli lipopolysaccharide (DIFCO) (LPS) was added at 50μg/ml. Cultures were incubated at 37° C. in a humidified atmosphere and 5% CO2.
The retinoids to be tested were first titrated in triplicate from 10 nM to 10 μM and left throughout the whole culture period. […] Cyclosporin A (Sandoz AG) was used as a reference compound (from 1 nM to 1 μM).
The cultures were then harvested on glass fiber filters and the radioactivity imcorporated into DNA measured in a β-liquid scintillation counter (Betaplate, Wallac Oy, Turku, Finland).
The results are expressed as % of the response of untreated cultures. […] Retinoids were added to the cultures at the beginning of the culture period.

[3] = tested on: human sebaceous cells; assay: Antiproliferative activity on human sebocytes in vitro; format: cell-based
Description: Sebaceous cells were isolated from adult human sebaceous glands by a combination of enzymatic and mechanical methods (Doran et al., 1991). The cells were cultured in Iscove's medium containing 10% fetal calf serum and 4 μg/ml dexamethasone on a layer of growth-arrested 3T3 mouse fibroblasts. Cells were plated in medium without the test compound and then given test compound in fresh medium 24-48 hours after the initial plating. The cultures were given fresh medium, containing the test compound, every 48 hours. On the day of harvesting, the cultures were rinsed with 0.03% EDTA in PBS, to remove only the 3T3 fibroblasts. followed by incubation in 0.05% trypsin/0.03% EDTA. The cells were suspended, mixed vigorously to prepare a single cell suspension and counted in a hemocytometer.
Stock solutions of compounds were made up as 10^-2 M solutions in 100% DMSO and stored at -20° C. in the dark. Compounds in solution were brought to room temperature and used by diluting directly into complete medium to the appropriate concentration.
The compounds of Example 12, Example 2, and Example 4 were tested for their effects on inhibiting the proliferation of first passage human sebaceous cells in vitro after 10 days of exposure to drug.

## CC1=C(/C=C/C2=C(/C=C/C(C)=C/C(=O)O)CCCC2)C(C)(C)CCC1 [Example 4, (2E,4E)-3-Methyl-5-(2-((E)-2(2,6,6-trimethyl-1-cyclohexen-1-yl)ethenyl)-1-cyclohexen-1-yl)-2,4-pentadienoic acid]
[1]
  pIC50: < 5.00
[2]; LPS induced mouse B cell proliferation
  potency relative to all-trans RA: 1/100
[2]; Mus musculus, B-cell, 72 h, alone, FIG. 4, day 3
  pIC50: 7.00
[2]; day 4, low doses (=IC50 at day 3)
  effect on B cell response at low doses: slightly enhancing the response
[2]; in combination with all-trans RA
  potentiation of inhibitory activity of all-trans RA on mouse B cell proliferation: potentiated the inhibitory activity of all-trans RA; also recorded: potentiates the effect of all-trans RA
[2]; with 1 nM RA, day 4, FIG. 6
  inhibition by combination with 1 nM RA: inhibition on the order of that induced by 10 nM RA
[2]; with 1 nM all-trans RA, day 3, FIG. 5
  potentiation of effect of 1 nM all-trans RA: potentiation of the effect of 1 nM RA to the level observed with 10 nM RA
[2]; with all-trans RA
  excess RXR ligand over all-trans RA for potentiation: 10 to 30 fold
  magnitude of the potentiation: roughly tenfold
[3]
  inhibition of sebocyte proliferation (in words): poor dose response curve; also recorded: much weaker than 13-cis-retinoic acid
[3]; Homo sapiens, 240 h, first passage cells, 10 days of exposure, read-out: Inhibition of human sebaceous cell proliferation in vitro IC50
  pIC50: < 6.00
